Test results from PMC5200928 (ACS Central Science, 2016).

How the values were obtained:
BRD4 = BRD4 (Homo sapiens, UniProt O60885); assay: BRD4 degradation in HeLa cells, immunoblot; assay type: cell-based
ERK1/2 = ERK1/2 degradation in A375 cells, immunoblot; assay type: cell-based; conditions: for ERK1/2 degradation: then Tz-thalidomide-Me 10 μM 18 h

In the case of `Cc1nnc(-c2ccc(CNC(=O)CCCCCOc3cccc4c3C(=O)N(C3CCC(=O)N(C)C3=O)C4=O)cc2)nn1` (stereo not drawn) [Tz-thalidomide-Me], the BRD4 level (BRD4; JQ1-TCO 10 μM 18 h, then Tz-thalidomide-Me 10 μM 18 h) is reported as “remained unchanged”, the ERK1/2 degradation (ERK1/2; Probe 1 4 h) is reported as “insignificant degradation of ERK1/2” and the ERK1/2 degradation (ERK1/2; Probe 1 4 h, listed as methyl-Tz-thalidomide) is reported as “reduced ERK1/2 degradation”.

With `O=C1CCC(N2C(=O)c3ccccc3C2=O)C(=O)N1` (stereo not drawn) [thalidomide] the “ERK1/2 degradation, competition” value (ERK1/2; Probe 1 4 h, then untagged thalidomide 10 μM and Tz-thalidomide 1 μM 18 h) was “degradation of ERK1/2 was suppressed”.

With `CC(C)C[C@H](NC(=O)[C@H](CCc1ccccc1)NC(=O)CN1CCOCC1)C(=O)N[C@@H](Cc1ccccc1)C(=O)N[C@@H](CC(C)C)C(=O)[C@@]1(C)CO1` [carfilzomib] the “BRD4 levels with proteasome inhibitor” value (BRD4; 4-h pretreatment with carfilzomib 1 μM, JQ1-TCO and Tz-thalidomide treatment) was “BRD4 levels were rescued” and the “ERK1/2 degradation with proteasome inhibitor” value (ERK1/2; 4-h pretreatment with carfilzomib 1 μM, Probe 1 and Tz-thalidomide) was “ERK1/2 degradation was prevented”.
